According to ChEMBL document CHEMBL1201862, “PubChem BioAssay data set” (2004):
Activity calls are given as the source filed them.

Legend:
BJ [1] = assay: BJ-TERT fibroblast viability loss – cell-based, RAS-independent, luminescence, dose response (AID 1933); type: functional; conditions: Homo sapiens
BJ [2] = assay: cells; type: functional, cell-based; conditions: Homo sapiens
[3] = microbe, parasite or virus in culture; type: functional; conditions: Mycobacterium tuberculosis
BJ [4] = assay: BJ-TERT-LT-ST fibroblast viability loss – cell-based, RAS-independent, luminescence, dose response (AID 1935); type: functional; conditions: Homo sapiens;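 further: BJ fibroblasts immortalized with TERT plus LT and ST oncogenes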
[5] = DRD fibroblast viability loss – cell-based, non-viral oncogenic, luminescence, dose response (AID 1934); type: functional; conditions: Homo sapiens
[6] = Luminescence Cell-Based Dose Retest to Confirm Inhibitors of Cancer Stem Cells. [Related pubchem assays (depositor defined):AID2717, AID2721]; type: functional; conditions: Homo sapiens
[7] = viability loss of HMLE_sh_eGFP cells – cell-based, luminescence, counter-screen for HMLE_sh_ECad selective toxicity project, dose response (AID 463074); type: functional, Homo sapiens;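 further: HMLE human mammary epithelial cells expressing control shRNA against eGFP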
BJ [8] = assay: growth inhibition of engineered Ras-driven BJ cells – cell-based, alamar blue fluorescence, cherrypicked samples, dose response (AID 2631); type: functional; conditions: Homo sapiens;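 further: confirmatory dose-response assay in RAS-dependent BJ fibroblasts engineered with TERT, LT and ST, with cytotoxicity read by fluorescence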
INS1 = assay: INS-1E survival protection against cytokine death – cell-based, luminescence, retest, dose response (AID 449756); type: functional; conditions: Rattus norvegicus;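 further: cell death triggered by IL-1 beta plus TNF-alpha plus IFN-gamma mixture; protective hits raise ATP signal compared with cytokine alone wells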
Paired box protein Pax-8 = Paired box protein Pax-8 (Homo sapiens, UniProt Q06710); assay: PAX8 transcriptional activity inhibition in RMG-I – RMG-I cells, luciferase, cherry-pick, dose response (AID 687027); type: functional, cell-based;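 further: luciferase reporter driven by Pax8 target thyroperoxidase promoter measured by SteadyGlo luminescence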
Paired box protein Pax-8, sequence (Q06710 whole entry): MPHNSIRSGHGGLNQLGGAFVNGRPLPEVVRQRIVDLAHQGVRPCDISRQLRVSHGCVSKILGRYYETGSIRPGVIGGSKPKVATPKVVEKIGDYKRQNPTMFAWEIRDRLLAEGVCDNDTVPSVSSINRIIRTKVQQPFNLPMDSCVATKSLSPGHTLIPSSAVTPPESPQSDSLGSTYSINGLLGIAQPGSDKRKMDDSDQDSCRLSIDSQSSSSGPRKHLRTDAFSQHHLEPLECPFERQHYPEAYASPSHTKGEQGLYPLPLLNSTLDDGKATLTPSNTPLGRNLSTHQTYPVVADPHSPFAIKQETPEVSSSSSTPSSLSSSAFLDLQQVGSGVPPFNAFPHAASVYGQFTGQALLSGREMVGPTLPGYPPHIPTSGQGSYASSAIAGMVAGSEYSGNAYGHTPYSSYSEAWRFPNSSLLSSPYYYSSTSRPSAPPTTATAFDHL

Cytochrome P450 3A4 = Cytochrome P450 3A4 (Homo sapiens, UniProt P08684);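 further: CYP3A4 tested as one member of a cytochrome P450 panel screen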
Cytochrome P450 3A4, sequence (P08684 whole entry): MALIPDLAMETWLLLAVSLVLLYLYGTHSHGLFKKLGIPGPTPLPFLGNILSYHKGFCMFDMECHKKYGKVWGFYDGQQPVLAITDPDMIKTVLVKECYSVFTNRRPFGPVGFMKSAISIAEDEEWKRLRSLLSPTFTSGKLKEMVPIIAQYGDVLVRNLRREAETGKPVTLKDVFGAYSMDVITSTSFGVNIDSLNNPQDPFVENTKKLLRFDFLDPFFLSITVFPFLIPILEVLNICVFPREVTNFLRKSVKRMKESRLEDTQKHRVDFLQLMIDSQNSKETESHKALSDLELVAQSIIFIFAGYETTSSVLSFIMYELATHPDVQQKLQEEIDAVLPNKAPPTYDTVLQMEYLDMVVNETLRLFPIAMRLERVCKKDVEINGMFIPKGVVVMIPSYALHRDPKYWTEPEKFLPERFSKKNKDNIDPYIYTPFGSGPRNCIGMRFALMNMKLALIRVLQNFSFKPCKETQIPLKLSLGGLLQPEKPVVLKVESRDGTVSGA

[9] = decrease of insulin promoter-GFP reporter – imaging, high-content screening, mouse beta cells (AID 1628); type: functional; conditions: MIN6
[10] = MIN6 cell viability loss – mouse insulinoma, cytotoxicity control, dose response (AID 2122); type: functional;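 further: confirmatory high-throughput counterscreen run to flag cytotoxic compounds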
HeLa = assay: ATP-based viability loss in HeLa cells – cell-based, CellTiter-Glo luminescence, cherry-pick samples, cytotoxicity control for MITF activator project, dose response (AID 540259); type: functional; conditions: Homo sapiens
[11] = luciferase reporter signal reduction – luminescence, H4-C neuroglioblastoma cells, dose response (AID 2458); type: functional, cell-based;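 further: H4 neuroglioblastoma cells stably carrying a luciferase reporter gene fusion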
cells = type: functional, cell-based
[12] = Luminescence Cell-Based Dose Response HTS to Identify Inhibitors of 5'UTR Stem-Loop Driven Prion Protein mRNA Translation in H4 Neuroglioblastoma Cells. [Related pubchem assays: 1827 (Project Summary), 1813 (Primary HTS)]; type: functional
[13] = alpha-synuclein stem-loop luciferase translation blockers – H4 neuroglioma cells, luminescence, confirmation (AID 1988); type: functional, cell-based
[14] = alpha-synuclein stem-loop translation blockers – luminescence, H4 neuroglioblastoma cells, dose confirmation, confirmation (AID 2454); type: functional, cell-based;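 further: H4 neuroglioblastoma cells carrying an alpha-synuclein 5'UTR luciferase reporter; potency for inhibition of the luciferase signal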
[15] = target: T1, Microphthalmia-associated transcription factor (Homo sapiens, UniProt O75030); assay: reducers of TRPM1 reporter luminescence, concentration series – cell-based, SK-MEL-5, cherry-picked, set 3, MITF inhibitor project, dose response (AID 493073); type: functional;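 further: SK-MEL-5 melanoma cells with luciferase driven by the MITF target TRPM1 promoter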
T1 sequence (O75030 whole entry): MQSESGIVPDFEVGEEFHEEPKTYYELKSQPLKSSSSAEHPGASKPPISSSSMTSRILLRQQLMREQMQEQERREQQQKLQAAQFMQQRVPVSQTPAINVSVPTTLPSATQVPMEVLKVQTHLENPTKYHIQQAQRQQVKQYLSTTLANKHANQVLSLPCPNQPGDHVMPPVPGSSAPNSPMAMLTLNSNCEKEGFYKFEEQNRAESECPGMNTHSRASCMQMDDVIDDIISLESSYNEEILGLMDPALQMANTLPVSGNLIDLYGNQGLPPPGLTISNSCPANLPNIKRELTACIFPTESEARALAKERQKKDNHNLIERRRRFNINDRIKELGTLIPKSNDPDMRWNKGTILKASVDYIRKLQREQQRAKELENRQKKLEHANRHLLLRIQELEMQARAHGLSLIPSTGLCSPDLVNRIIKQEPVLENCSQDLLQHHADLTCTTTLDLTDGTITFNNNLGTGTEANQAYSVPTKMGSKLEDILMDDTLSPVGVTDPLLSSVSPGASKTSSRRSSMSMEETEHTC

Bcl-2-related protein A1 = target: T2, Bcl-2-related protein A1 (Mus musculus, UniProt Q07440); type: functional;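 further: confirmatory dose–response counterscreen on Bfl-1, used to check hits from a UBC13 polyubiquitin inhibitor campaign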
T2 sequence (Q07440 whole entry): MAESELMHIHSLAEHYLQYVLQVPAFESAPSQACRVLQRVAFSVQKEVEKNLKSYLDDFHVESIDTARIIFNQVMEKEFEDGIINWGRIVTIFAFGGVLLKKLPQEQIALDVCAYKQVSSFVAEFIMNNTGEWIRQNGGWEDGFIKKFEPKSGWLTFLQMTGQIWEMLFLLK

[16] = target: T3, Ubiquitin-conjugating enzyme E2 N (Homo sapiens, UniProt P61088); type: functional
T3 sequence (P61088 whole entry): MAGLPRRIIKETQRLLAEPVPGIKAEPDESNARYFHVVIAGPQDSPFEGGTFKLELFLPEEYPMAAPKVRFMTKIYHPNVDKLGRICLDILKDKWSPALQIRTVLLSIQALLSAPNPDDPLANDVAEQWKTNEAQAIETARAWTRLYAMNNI

[17] = target: T3, Ubiquitin-conjugating enzyme E2 N; type: functional; remark: listed apart in the source
[18] = target: T4, Rac GTPase-activating protein 1 (Homo sapiens, UniProt Q9H0H5); assay: blockers of MgcRacGAP-driven Rac1 GTP hydrolysis – biochemical, ADP Hunter fluorescence, primary and confirmatory, confirmation (AID 624330); type: functional
T4 sequence (Q9H0H5 whole entry): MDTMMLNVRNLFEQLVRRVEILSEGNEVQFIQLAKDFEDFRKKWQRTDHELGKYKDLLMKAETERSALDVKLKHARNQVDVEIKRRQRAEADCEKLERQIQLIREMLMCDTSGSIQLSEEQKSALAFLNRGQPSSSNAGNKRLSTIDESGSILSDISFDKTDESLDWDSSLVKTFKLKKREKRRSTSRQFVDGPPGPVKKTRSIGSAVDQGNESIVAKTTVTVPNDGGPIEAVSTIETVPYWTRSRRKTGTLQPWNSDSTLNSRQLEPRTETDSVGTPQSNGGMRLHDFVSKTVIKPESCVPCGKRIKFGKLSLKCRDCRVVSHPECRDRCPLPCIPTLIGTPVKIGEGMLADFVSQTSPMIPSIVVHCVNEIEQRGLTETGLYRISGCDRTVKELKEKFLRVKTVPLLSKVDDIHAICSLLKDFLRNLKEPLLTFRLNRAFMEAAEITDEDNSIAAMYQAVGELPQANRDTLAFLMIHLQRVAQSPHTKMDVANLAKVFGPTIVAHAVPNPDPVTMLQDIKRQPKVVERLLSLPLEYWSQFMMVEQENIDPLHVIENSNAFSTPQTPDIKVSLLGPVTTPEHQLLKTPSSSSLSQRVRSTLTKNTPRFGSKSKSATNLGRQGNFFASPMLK

[19] = luciferase reporter signal suppression in cells – H4 neuroglioma cells, luminescence, dose response (AID 1990); type: functional, cell-based
[20] = target: Luciferin 4-monooxygenase (Photinus pyralis, UniProt P08659); assay: Counter Screen for Luciferase-based Assay Positives. [Related pubchem assays: 620, 618, 411 ]
Luciferin 4-monooxygenase, sequence (P08659 whole entry): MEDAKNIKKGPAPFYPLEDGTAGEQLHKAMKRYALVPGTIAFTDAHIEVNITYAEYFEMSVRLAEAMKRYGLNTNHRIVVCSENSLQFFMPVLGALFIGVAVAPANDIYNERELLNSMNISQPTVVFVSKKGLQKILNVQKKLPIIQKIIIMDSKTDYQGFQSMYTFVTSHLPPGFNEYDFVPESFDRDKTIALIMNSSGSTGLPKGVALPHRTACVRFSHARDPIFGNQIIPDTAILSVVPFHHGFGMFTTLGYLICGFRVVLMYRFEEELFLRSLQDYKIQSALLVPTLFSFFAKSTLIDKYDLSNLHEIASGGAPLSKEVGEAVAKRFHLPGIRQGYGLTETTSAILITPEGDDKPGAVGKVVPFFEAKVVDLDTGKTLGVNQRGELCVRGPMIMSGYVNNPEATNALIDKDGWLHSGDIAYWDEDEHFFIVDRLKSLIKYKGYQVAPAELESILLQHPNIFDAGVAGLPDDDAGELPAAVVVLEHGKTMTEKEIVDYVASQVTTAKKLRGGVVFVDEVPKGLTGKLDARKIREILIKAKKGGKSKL

HT-1080 = assay: HT1080 cell viability loss – fluorescence readout (AID 620); type: functional, cell-based; conditions: Homo sapiens
Estrogen receptor = target: T5, Estrogen receptor (Homo sapiens, UniProt P03372);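 further: potency for inhibiting coactivator peptide recruitment to the receptor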
T5 sequence (P03372 whole entry): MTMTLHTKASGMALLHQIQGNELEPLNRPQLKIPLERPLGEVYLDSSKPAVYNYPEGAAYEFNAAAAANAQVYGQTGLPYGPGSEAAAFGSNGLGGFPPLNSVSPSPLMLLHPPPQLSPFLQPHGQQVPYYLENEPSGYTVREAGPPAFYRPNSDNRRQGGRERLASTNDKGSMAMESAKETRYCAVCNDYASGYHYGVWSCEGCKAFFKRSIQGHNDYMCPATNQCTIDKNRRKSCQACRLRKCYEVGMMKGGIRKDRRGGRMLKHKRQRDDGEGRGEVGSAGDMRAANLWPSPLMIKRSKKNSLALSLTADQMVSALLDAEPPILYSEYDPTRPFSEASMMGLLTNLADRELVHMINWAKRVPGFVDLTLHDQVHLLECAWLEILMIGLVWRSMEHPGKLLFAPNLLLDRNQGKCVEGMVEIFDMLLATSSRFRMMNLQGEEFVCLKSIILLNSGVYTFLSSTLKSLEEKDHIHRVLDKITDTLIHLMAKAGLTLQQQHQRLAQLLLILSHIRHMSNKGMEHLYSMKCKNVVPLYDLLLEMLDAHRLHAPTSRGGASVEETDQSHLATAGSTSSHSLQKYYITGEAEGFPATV

Estrogen receptor beta = Estrogen receptor beta (Homo sapiens, UniProt Q92731);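 further: recombinant ER-beta bound to coactivator SRC1 peptide in presence of estradiol agonist; inhibitors block coactivator peptide binding and lower the FRET signal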
Estrogen receptor beta, sequence (Q92731 whole entry): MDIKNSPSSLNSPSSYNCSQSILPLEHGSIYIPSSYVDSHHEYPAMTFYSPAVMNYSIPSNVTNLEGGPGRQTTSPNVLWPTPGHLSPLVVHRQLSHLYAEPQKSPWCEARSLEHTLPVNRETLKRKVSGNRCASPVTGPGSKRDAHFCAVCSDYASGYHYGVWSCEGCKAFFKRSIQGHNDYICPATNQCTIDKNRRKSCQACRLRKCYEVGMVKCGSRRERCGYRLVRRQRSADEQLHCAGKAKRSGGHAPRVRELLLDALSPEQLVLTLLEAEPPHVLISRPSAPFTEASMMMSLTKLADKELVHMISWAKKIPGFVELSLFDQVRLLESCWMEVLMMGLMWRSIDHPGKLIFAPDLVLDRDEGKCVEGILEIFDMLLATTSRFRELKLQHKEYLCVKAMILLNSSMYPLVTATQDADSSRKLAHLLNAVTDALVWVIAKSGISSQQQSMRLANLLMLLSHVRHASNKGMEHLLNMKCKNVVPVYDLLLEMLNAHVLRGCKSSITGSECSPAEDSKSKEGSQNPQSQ

Vero = assay: viability of Vero cells under compound – cytotoxicity control for flavivirus capping enzyme inhibitors (AID 588742); type: functional; conditions: Chlorocebus sabaeus
[21] = reduction of Shn3 3'UTR-driven luciferase in osteoblasts – cell-based, Clone20 osteoblasts, firefly luciferase, cherry-picked, dose response (AID 624132); type: functional;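 further: firefly luciferase luminescence from reporter carrying the Shn3 3'UTR in osteoblasts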
[22] = loss of viability in HepG2 cells – cell-based, CellTiter-Glo, cherry-picked, cytotoxicity control for Shn3 inhibitor project, dose response (AID 624134); type: functional
[23] = non-specific 3'UTR reporter inhibition in Clone20-Shn3RL – cell-based, Renilla luciferase, cherry-picked, counter-screen for Shn3 inhibitor project, dose response (AID 624133); type: functional

## CCCCn1cnc2c(c(-c3ccccc3)c(-c3ccccc3)n2Cc2ccco2)c1=N
BJ [1]
  EC50: 7.71 µM (active)
BJ [2]
  EC50: 36.1 µM (active)
[3]
  CC50: > 40 µM (active)
BJ [4]
  EC50: 11.1 µM (inconclusive)
[5]
  EC50: 9.06 µM (active)
[6]
  AC50: 49.8 µM (active)
[7]
  AC50: 50.9 µM (active)
BJ [8]
  EC50: 76.5 µM (active)
INS1
  AC50: > 260 µM (inactive)
Paired box protein Pax-8
  AC50: 9.7 µM (active)

## Cc1s/c(=N\C(=O)c2ccco2)n(C)c1-c1ccccc1
Cytochrome P450 3A4
  AC50: inconclusive

## COc1ccc(-c2c3c(nc4sc5c(O)nc(C)nc5c24)CCC3)cc1
[9]
  IC50: 847 nM (active)
[10]
  IC50: > 16 µM (inactive)

## CCN(CC)S(=O)(=O)c1cccc(C(=O)N/N=C(\C)c2cccs2)c1
HeLa
  AC50: 50.9 µM (active)

## COc1cc2c(c(OC)c1OC)-c1ccc(N(C)CC(OC)OC)c(=O)cc1[C@@H](NC(C)=O)CC2
[11]
  EC50: > 12 µM (not active)
BJ [1]
  EC50: 2.59 µM (inconclusive)
cells
  EC50: > 12 µM (not active)
[12]
  EC50: 8.84 µM (active)
[13]
  EC50: < 100 nM (active)
BJ [2]
  EC50: 3.06 µM (active)
BJ [4]
  EC50: 20 µM (inconclusive)
[5]
  EC50: 2.35 µM (active)
[14]
  EC50: 1.22 µM (active)
[15]
  AC50: 2.04 µM (active)
BJ [8]
  EC50: 0.117 µM (active)

## C#CCOCCOCCOCCNc1nc(N2CCN(C(=O)[C@H](CCCCN)n3cc([C@@H](N)CC(C)C)nn3)CC2)nc(N2CCN(C(=O)[C@H](CCCCN)n3cc([C@@H](N)CC(C)C)nn3)CC2)n1
Bcl-2-related protein A1
  IC50: > 20 µM (inactive)
[16]
  IC50: 14.4 µM (active)
[17]
  IC50: 14 µM (active)
[18]
  IC50: 190 µM (active)

## COc1ccc(C(=O)Nn2c(SCC(=O)NCc3ccccc3)nc3ccccc3c2=O)cc1
[19]
  EC50: 9.49 µM (active)
[20]
  EC50: 2.51 µM (active)
[12]
  EC50: 9.71 µM (active)
[13]
  EC50: 403 nM (inconclusive)
HT-1080
  EC50: > 50 µM (not active)
Bcl-2-related protein A1
  IC50: > 20 µM (inactive)
[16]
  IC50: 19.4 µM (active)
[17]
  IC50: > 20 µM (inactive)

## Nc1ccc(O)c2c(=O)cc(-c3ccccc3Cl)oc12
HeLa
  AC50: 79.6 µM (active)

## O=C(Nc1ccc(N2CCCC2)cc1)C(Cl)c1ccccc1 (centres undefined)
Estrogen receptor
  IC50: > 50 µM (not active)
Estrogen receptor beta
  IC50: > 50 µM (not active)
Vero
  CC50: > 40 µM (active)

## CC1CCN(c2ccc(/C=N/n3nnnc3N)cc2[N+](=O)[O-])CC1
Cytochrome P450 3A4
  AC50: inconclusive

## CC(CCCC(C)(C)O)NC(=O)c1cc(COc2ccc3ncccc3c2)on1 (centres undefined)
[9]
  IC50: 1960 nM (active)
[10]
  IC50: 1.48 µM (active)
INS1
  AC50: 4.37 µM (active)
[21]
  AC50: 1.75 µM (active)
[22]
  AC50: 3.65 µM (active)
[23]
  AC50: 1.06 µM (active)

## O=C(Cc1cccc2ccccc12)N/N=C/c1ccc(Sc2nc3ccccc3s2)o1
Cytochrome P450 3A4
  AC50: inconclusive
